# Measurements as given in patent US5512558A, “Nor-bile acid derivatives, processes for their preparation and the use of these compounds as medicaments” (Hoechst Aktiengesellschaft, priority 1993, dated 1996).
# Target: T1, Na+-dependent bile acid transportation system (brush border membrane vesicles of the ileum) (Oryctolagus cuniculus, UniProt Q28727)
# T1 construct: Brush border membrane vesicles were prepared from the intestinal cells of the small intestine; from tissue; host or cells: brush border membrane vesicles from the terminal 7/10 of the small intestine (ileum) of male New Zealand rabbits
# T1 sequence (Q28727 1-347): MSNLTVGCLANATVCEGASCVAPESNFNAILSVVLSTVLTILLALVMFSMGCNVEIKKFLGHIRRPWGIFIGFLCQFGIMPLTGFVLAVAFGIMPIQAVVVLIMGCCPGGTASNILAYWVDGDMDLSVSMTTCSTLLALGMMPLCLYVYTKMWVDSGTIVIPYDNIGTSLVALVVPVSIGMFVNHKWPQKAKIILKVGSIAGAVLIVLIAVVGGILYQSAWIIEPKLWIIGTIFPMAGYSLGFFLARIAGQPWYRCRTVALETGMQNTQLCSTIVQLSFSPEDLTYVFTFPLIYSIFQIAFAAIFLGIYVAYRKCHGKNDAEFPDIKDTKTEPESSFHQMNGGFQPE
# Assay: Inhibition of [3H]-taurocholate uptake in brush border membrane vesicles of the ileum of rabbits
# Format: biochemical
# Conditions: Na+-dependent part of [3H]-taurocholate uptake (difference Na-T-B minus K-T-B), rabbit ileal brush border membrane vesicles
# Protocol: The compounds according to the invention were tested biologically by determination of the inhibition of ^3 H!-taurocholate uptake in the brush border membrane vesicle of the ileum of rabbits. The inhibition test was carried out as follows:
# 1. Preparation of brush border membrane vesicles from the ileum of rabbits
# Brush border membrane vesicles were prepared from the intestinal cells of the small intestine by the so-called Mg^2+ precipitation method. Male New Zealand rabbits (2 to 2.5 kg body weight) were sacrificed by intravenous injection of 0.5 ml of an aqueous solution of 2.5 mg of tetracaine HCl, 100 T 61^R and 25 mg of mebezonium iodide. The small intestine was removed and rinsed with ice-cold physiological saline solution. The terminal 7/10 of the small intestine (measured in the oral-rectal direction, i.e. the terminal ileum, which contains the active Na^+ -dependent bile acid transportation system) was used for preparation of the brush border membrane vesicles. The intestines were frozen in plastic bags under nitrogen at -80° C. For preparation of the membrane vesicles, the frozen intestines were thawed at 30° C. in a water-bath. The mucosa was scraped off and suspended in 60 ml of ice-cold 12 mMTris/HCl buffer (pH 7.1)/300 mM mannitol, 5 mM EGTA/10 mg/l of phenylmethyl-sulfonyl fluoride/1 mg/l of trypsin inhibitor from soybean (32 U/mg)/0.5 mg/l of trypsin inhibitor from bovine lung (193 U/mg)/5 mg/l bacitracin. After dilution to 300 ml with ice-cold distilled water, the mixture was homogenized with an Ultraturrax (18-rod, IKA Werk Stuafen, FRG) for 3 minutes at 75% of the maximum power, while cooling with ice. After addition of 3 ml of 1M MgCl2 solution (final concentration 10 mM), the mixture was left to stand for exactly 1 minute at 0° C. By addition of Mg^2+, the cell membranes aggregate and precipitate, with the exception of the brush border membranes. After centrifugation at 3000×g (5000 rpm, SS-34 rotor) for 15 minutes, the precipitate is discarded and the supernatant, which contains the brush border membranes, is centrifuged at […] (15,000 rpm, SS-34 rotor) for 30 minutes. The supernatant was discarded and the precipitate was rehomogenized in 60 ml of 12 mMTris/HCl buffer (pH 7.1)/60 mM mannitol, 5 mM EGTA using a Potter Elvejhem homogenizer (Braun, Melsungen, 900 rpm, 10 strokes). After addition of 0.1 ml of 1M MgCl2 solution and an incubation time of 15 minutes at 0° C., the mixture was centrifuged again at 3000×g for 15 minutes. The supernatant was then centrifuged again at 46,000×g (15,000 rpm, SS-34 rotor) for 30 minutes. The precipitate was taken up in 30 ml of 10 mM Tris/Hepes buffer (pH 7.4)/300 mM mannitol and resuspended homogeneously by 20 strokes in a Potter Elvejhem homogenizer at 1000 rpm. After centrifugation at 48,000×g (20,000 rpm, SS-34 rotor) for 30 minutes, the precipitate was taken up in 0.5 to 2 ml of Tris/Hepes buffer (pH 7.4)/280 mM mannitol (final concentration 20 mg/ml) and resuspended with the aid of a tuberculin syringe with a 27 gauge needle. The vesicles were either used for transportation studies immediately after preparation, or stored at -196° C. in 4 mg portions in liquid nitrogen.
# 2. Inhibition of the Na^+ -dependent ^3 H!-taurocholate uptake in brush border membrane vesicles of the ileum
# The uptake of substrates in the brush border membrane vesicles described above was determined by means of the so-called membrane filtration technique. 10 μl of the vesicle suspension (100 μg of protein) were pipetted as drops onto the wall of a polystyrene incubation tube (11×70 mm) which contained the incubation medium with the corresponding ligands (90 μl). […]
row,Structure (SMILES),quotient of the IC50Na values of the reference substance taurochenodeoxycholate (TCDC) and the test substance
1,C[C@H](CCC(=O)O)[C@H]1CC[C@H]2[C@@H]3[C@H](O)C[C@@H]4C[C@@H](NC(=O)C[C@@H](C)[C@H]5CC[C@H]6[C@@H]7[C@H](O)C[C@@H]8C[C@H](O)CC[C@]8(C)[C@H]7C[C@H](O)[C@]56C)CC[C@]4(C)[C@H]3C[C@H](O)[C@]12C [Example 32],0.65
2,C[C@H](CCC(=O)O)[C@H]1CC[C@H]2[C@@H]3[C@H](O)C[C@@H]4C[C@@H](NC(=O)C[C@@H](C)[C@H]5CC[C@H]6[C@@H]7[C@H](O)C[C@@H]8C[C@H](O)CC[C@]8(C)[C@H]7C[C@H](O)[C@]56C)CC[C@]4(C)[C@H]3CC[C@]12C [Example 36],1.14
3,C[C@H](CCC(=O)O)[C@H]1CC[C@H]2[C@@H]3[C@H](O)C[C@@H]4C[C@@H](OCCOCCNC(=O)[C@@H](C)[C@H]5CC[C@H]6[C@@H]7[C@H](O)C[C@@H]8C[C@H](O)CC[C@]8(C)[C@H]7C[C@H](O)[C@]56C)CC[C@]4(C)[C@H]3C[C@H](O)[C@]12C [Example 41],0.58
4,CC(C(=O)N[C@H]1CC[C@@]2(C)[C@@H](C1)C[C@@H](O)[C@@H]1[C@@H]2CC[C@]2(C)[C@@H]([C@H](C)CCC(=O)O)CC[C@@H]12)[C@H]1CC[C@H]2[C@@H]3[C@H](O)C[C@@H]4C[C@H](O)CC[C@]4(C)[C@H]3C[C@H](O)[C@]12C (stereo partly shown) [Example 43],0.78
5,C[C@H](CCC(=O)NCC(=O)O)[C@H]1CC[C@H]2[C@@H]3[C@H](O)C[C@@H]4C[C@@H](OCCOCCNC(=O)C[C@@H](C)[C@H]5CC[C@H]6[C@@H]7[C@H](O)C[C@@H]8C[C@H](O)CC[C@]8(C)[C@H]7C[C@H](O)[C@]56C)CC[C@]4(C)[C@H]3C[C@H](O)[C@]12C [Example 57],0.34
6,C[C@H](CCC(=O)N[C@H]1CC[C@@]2(C)[C@@H](C1)C[C@@H](O)[C@@H]1[C@@H]2C[C@H](O)[C@]2(C)[C@@H]([C@H](C)CC(=O)O)CC[C@@H]12)[C@H]1CC[C@H]2[C@@H]3[C@H](O)C[C@@H]4C[C@H](O)CC[C@]4(C)[C@H]3CC[C@]12C [Example 65],0.64
7,C[C@H](CC(=O)O)[C@H]1CC[C@H]2[C@@H]3[C@H](O)C[C@@H]4C[C@@H](NC(=O)[C@@H](C)[C@H]5CC[C@H]6[C@@H]7[C@H](O)C[C@@H]8C[C@H](O)CC[C@]8(C)[C@H]7C[C@H](O)[C@]56C)CC[C@]4(C)[C@H]3C[C@H](O)[C@]12C [Example 69],0.86
